The text below walks through data of BindingDB's records for doi:10.1021/jm00121a012 (Takeda Chemical Industries, 1989).

Each structure is given as a SMILES string. pIC50: −log10 of the molar value.

The target in the assay is Platelet-activating factor receptor (Oryctolagus cuniculus). As to the kind of experiment: Inhibition of rabbit platelet aggregation induced by platelet activating factor (PAF).
What is called pIC50 is the IC50 on a negative log10 scale, so that one unit is a factor of ten. A lower pIC50 goes with a large IC50. Regarding `CCCCCCCCCCCCCCCCCCNC(=O)OCC(COC(=O)N(Cc1cccc[n+]1C)C(C)=O)OC` (stereo not drawn), the pIC50 was 6.70. `CCCCCCCCCCCCCCCCCCNC(=O)OCC(COC(=O)N(CC[N+](C)(C)C)C(=O)OC)OC` (stereo not drawn): the pIC50 is 5.64. The compound `CCCCCCCCCCCCCCCCCCOCC(COC(=O)N(CC[N+](C)(C)C)C(C)=O)OC(C)=O` (stereo not drawn) had a pIC50 of 6.06. Compound `CCCCCCCCCCCCCCCCCCNC(=O)OCC(COC(=O)N(CC[N+]1(C)CCOCC1)C(C)=O)OC` (stereo not drawn) had a pIC50 of 5.04.

In turn, `CCCCCCCCCCCCCCCCCCNC(=O)OCC(COC(=O)N(Cc1cccc[n+]1CCC)C(C)=O)OC` (stereo not drawn) gave a negative-log IC50 (pIC50) of 7.03. In the case of `CCCCCCCCCCCCCCCCCCNC(=O)OCC(COC(=O)N(CC[N+](C)(C)C)C(=O)NCCC)OC` (stereo not drawn), the pIC50 was under 4.52. Compound `CCCCCCCCCCCCCCCCCCNC(=O)OCC(COC(=O)NCC[N+](C)(C)C)OC` (stereo not drawn) had a pIC50 of 4.85.

In the case of `CCCCCCCCCCCCCCCCCCNC(=O)OCC(COC(=O)N(CC[N+](C)(C)C)C(C)=O)OC` (stereo not drawn), the negative-log IC50 (pIC50) was 5.82. The figure for `CCCCCCCCCCCCCCCCCCNC(=O)OCC(COC(=O)N(Cc1csc[n+]1C)C(C)=O)OC` (stereo not drawn) is 7.00; for `CCCCCCCCCCCCCCCCCCNC(=O)OCC(COC(=O)N(CC[N+]1(C)CCCC1)C(C)=O)OC` (stereo not drawn) it is 5.96. Under `CCCCCCCCCCCCCCCCCCNC(=O)OCC(COC(=O)N(CC[N+](C)(C)C)C(=O)N(C)C)OC` (stereo not drawn) stands 5.24; under `CCCCCCCCCCCCCCCCCCNC(=O)OCC(COC(=O)N(CC[N+](C)(C)C)C(=O)CC)OC` (stereo not drawn), 5.25; under `CCCCCCCCCCCCCCCCCCNC(=O)OCC(COC(=O)N(CCC[N+](C)(C)C)C(C)=O)OC` (stereo not drawn), 5.07. The figure for `CCCCCCCCCCCCCCCCCCNC(=O)OCC(COC(=O)N(CC[N+](C)(C)C)C(=O)CCC)OC` (stereo not drawn) is 5.11; for `CCCCCCCCCCCCCCCCCCNC(=O)OCC(COC(=O)N(Cc1csc[n+]1CC)C(C)=O)OC` (stereo not drawn) it is 7.04. Compound `CCCCCCCCCCCCCCCCCCNC(=O)OCC(COC(=O)N(C)CC[N+](C)(C)C)OC` (stereo not drawn) showed a pIC50 of 5.09. For the compound `CCCCCCCCCCCCCCCCCCNC(=O)OCC(COC(=O)N(CC[N+](C)(C)C)C(=O)N1CCCC1)OC` (stereo not drawn), the pIC50 was 5.07. In the case of `CCCCCCCCCCCCCCCCCCOCC(COC(=O)NCC[N+](C)(C)C)OC(C)=O` (stereo not drawn), the pIC50 is 5.08.
